Test results as given in PMC5656836, “Distinct activation mechanisms trigger the trypanocidal activity of DNA damaging prodrugs” (Molecular Microbiology, 2017).
Entries after “also recorded” stand apart in the source; their conditions may differ. Like-named read-outs stand apart in the source and are kept apart here.

Legend:
[1] = system: bloodstream form T. brucei; test: Growth inhibition of wild type / control bloodstream form T. brucei (resazurin); format: cell-based; conditions: for T. brucei SI: Selectivity Index: fold difference in EC50 of THP‐1 line relative to parasite
T. cruzi epimastigotes = test: Growth inhibition of T. cruzi epimastigotes (resazurin); format: cell-based; conditions: for EC50: Trypanosoma cruzi, 336 h, epimastigotes, 14 days, read-out: T. cruzi EC50
L. major promastigotes = test: Growth inhibition of L. major promastigotes (resazurin); format: cell-based; conditions: for EC50: read-out: L. major EC50
[2] = system: differentiated THP‐1 cells; test: Mammalian inhibition assay, differentiated THP-1 cells; format: cell-based; conditions: Homo sapiens, 72 h; differentiated THP‐1 cells, 3 days; read-out: THP‐1 EC50
[3] = system: mouse peritoneal macrophages; test: Toxicity to mouse peritoneal macrophages (cell counts, Giemsa); format: cell-based, BALB/c mice; conditions: Peritoneal macrophage, 120 h, non‐cancerous primary cells, up to 5 days, read-out: EC50 towards mouse peritoneal macrophages
[4] = system: T. brucei over expressing TbNTR (Tbntr++); test: microbe, parasite or virus in culture; format: cell-based; conditions: for EC50: Trypanosoma brucei, read-out: EC50 Tbntr++
[5] = system: T. brucei over expressing TbCPR2 (Tbcpr2++); test: microbe, parasite or virus in culture; format: cell-based; conditions: for EC50: Trypanosoma brucei, read-out: EC50 Tbcpr2++
RH1^RC1 T. brucei = test: microbe, parasite or virus in culture; format: cell-based; conditions: for EC50: read-out: EC50 RH1^RC1;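 on ratio (fold difference in EC50 between RH1^RC1 and wild type): resistant clone selected by stepwise exposure to the aziridinyl benzoquinone prodrug in culture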
[6] = system: T. brucei Tbsnm1 null mutants (ΔTbsnm1); test: microbe, parasite or virus in culture; format: cell-based; conditions: for EC50: Trypanosoma brucei, read-out: EC50 ΔTbsnm1
[7] = system: ΔTbsnm1 Tbcpr2++ T. brucei; format: cell-based
[8] = system: differentiated THP‐1 cells; conditions: read-out: THP‐1 EC50, ref Voak et al., 2013; cited from earlier work
[9] = system: T. brucei Tbntr heterozygote line; format: cell-based
RH1^RC2 T. brucei = test: microbe, parasite or virus in culture; format: cell-based; conditions: read-out: EC50 RH1^RC2
[10] = system: ΔTbsnm1 Tbntr++ T. brucei; format: cell-based
Wild type T. brucei = format: cell-based
[11] = Trypanosoma brucei, Table 2, parasites expressing wild type levels, read-out: EC50 Control
[12] = Trypanosoma brucei, Table 3, BSF T. brucei wild type, read-out: EC50 Wild type
[13] = Trypanosoma brucei, Table 4, wild type T. brucei, read-out: EC50 Control
[14] = Leishmania major, 144 h, promastigotes, 6 days

| SMILES | T. brucei SI [1] | EC50 [1, 11] [nM] | EC50 [1, 12] [nM] | EC50 [1, 13] [nM] | T. cruzi SI (T. cruzi epimastigotes) | EC50 (T. cruzi epimastigotes) [nM] | L. major SI (L. major promastigotes) | EC50 (L. major promastigotes; [14]) [nM] | EC50 [2] [nM] | EC50 [3] [nM] | Fold difference in EC50 Tbntr++ relative to control [4] | EC50 [4] [nM] | Fold difference in EC50 Tbcpr2++ relative to control [5] | EC50 [5] [nM] | ratio (fold difference in EC50 between RH1^RC1 and wild type) (RH1^RC1 T. brucei) | EC50 (RH1^RC1 T. brucei; Trypanosoma brucei) [nM] | Ratio of EC50 values ΔTbsnm1 / control [6] | Susceptibility of Tbsnm1 null mutants relative to wild type / control (fold more susceptible) [6] | EC50 [6] [nM] | other results |
| --- | --- | --- | --- | --- | --- | --- | --- | --- | --- | --- | --- | --- | --- | --- | --- | --- | --- | --- | --- | --- |
| O=C1C(N2CC2)=C(N2CC2)C(=O)C(N2CC2)=C1N1CC1 [ABQ22] | 1 | 138 ± 25 | 197 ± 31 | 138 ± 25 | 3 | 55 ± 2 | 1 | 218 ± 20 | 138 ± 25 | 120 | 148 ± 9 (1.07) | 148 | 20 ± 3 (0.14 ) | 20 | 1.2 | 232 ± 27 | 0.15 | sevenfold | 21 ± 5 | EC50 ([1]; Trypanosoma brucei, 72 h, bloodstream form, 3 days, Table 1, activity of some compounds previously reported (Hall et al., 2012), read-out: T. brucei EC50): 148 ± 1 nM; Susceptibility of TbCPR2 or 3 over expressing lines relative to control cells [5]: hypersensitive; also recorded: sevenfold; Susceptibility of RH1 selected (RH1^RC) lines relative to wild type (RH1^RC1 T. brucei): equally sensite; Fold more sensitive, ΔTbsnm1 Tbcpr2++ versus wild type [7]: 12.5 fold |
| CC1CS(=O)(=O)CCN1/N=C/c1ccc([N+](=O)[O-])o1 (stereo not shown) [Nifurtimox, reference compound] |  |  | 2700 ± 100 | 2850 ± 20 |  | 2600 ± 400 |  | 6280 ± 40 |  |  |  | 315 |  |  |  |  |  |  | 2250 ± 90 | EC50 ([1]; Trypanosoma brucei, read-out: EC50 Control): 2980 ± 30 nM; EC50 [8]: > 100000 nM |
| CC1=C(N2CC2)C(=O)C(CO)=C(N2CC2)C1=O [RH1] | <5 | 19 ± 1 | 25 ± 6 | 19 ± 1 | <33 |  | <1 | < 100 | < 100 | < 100 | 3 ± 1 (0.16 ) | 3 | 20 ± 3 (1.05) | 20 | 3.3 | 86 ± 3 | 0.26 | threefold | 5 ± 1 | inhibition at 0.005 µM ([1]; Trypanosoma brucei, 5 nM): ~10%; Growth of wild type T. brucei ([1]; medium containing RH1 (40 nM), after 24 hrs): no growth; L. major EC50 (L. major promastigotes; promastigotes, 6 days): high potency; EC50 (L. major promastigotes; promastigotes, 6 days): 68 ± 1 nM; Susceptibility of TbNTR over expressing T. brucei relative to controls / wild type (fold more susceptible) [4]: fivefold; EC50 of Tbntr heterozygote line relative to wild type (fold greater) [9]: approximately 2.5 fold; Doubling time of resistant clones (RH1^RC1 T. brucei): ~10.5 h; Fold less sensitive, RH1^RC lines versus controls (RH1^RC1 T. brucei): ~4.5 fold; Fold less sensitive, RH1^RC lines versus wild type (RH1^RC1 T. brucei): ~3.5 fold; EC50 (RH1^RC1 T. brucei): 83 ± 2 nM; EC50 (RH1^RC2 T. brucei; Trypanosoma brucei): 91 ± 11 nM; EC50 (RH1^RC2 T. brucei): 92 ± 1 nM; Fold increase in susceptibility of ΔTbsnm1 Tbntr++ versus wild type [10]: 15 fold; Cells in G1/S phase (1N1K) (Wild type T. brucei): 37%; Cells in G2/M phase (1N2K) (Wild type T. brucei): 58% |
